In patent US9562085B2, “Antimicrobial peptide” (priority 2013, dated 2017):
Where two headings read alike, the source gives them in different places. Non-standard residues stand in square brackets, D forms with d. Residues, ends and D or L forms follow the SMILES beside them. *: point of attachment. X1 = NCCOCCOCCOCCOCCOCCOCCOCCOCCOCCOCCOC(=O)*; Hexanoyl = CCCCCC(=O)*

Tested on: S. aureus JAR
Type: cell-based
Method: S. aureus JAR is described in Campoccia et al. (Int. J. Artif. Organs, 2008 September; 31(9):841-7).
For the in vitro killing assay with P10 variants, S. aureus JAR ([…] CFU/ml) were incubated for 2 hours at 37° C. with various concentrations of the peptides in PBS or in PBS/human plasma (1/1, v/v). […] The LC99.9 is the average value of two independent experiments.

Molecule | LC99.9 (μM) (50% plasma) (JAR, 2 h) [µM] | LC99.9 (μM) (PBS) (JAR, 2 h) [µM] | LC99.9 (μM) (50% plasma) (S. aureus JAR, 2 hours at 37° C. in PBS/human plasma (1/1, v/v), concentration killing 99.9% of the bacteria, average of two experiments) [µM] | LC99.9 (μM) (PBS) (S. aureus JAR, 2 hours at 37° C. in PBS, concentration killing 99.9% of the bacteria, average of two experiments) [µM] | antimicrobial activity, in words (statements referring to Tables 2-6)
Ac-LAREYKKIVEKLKRFLRQVLRTLR-NH2 [Peptide 1302-40, JLAREYKKIVEKLKRFLRQVLRTLRB] | 76.8 | 1.6 |  |  | 
Ac-LAREYKKIVEKLKRWLRQVL-NH2 [Peptide 1302-60, JLAREYKKIVEKLKRWLRQVLB] | 102.4 | 1.6 |  |  | 
Ac-LAREYKKIVEKLKRWLRQVLHTLR-NH2 [Peptide 1302-51, JLAREYKKIVEKLKRWLRQVLHTLRB] | 102.4 | 1.6 |  |  | 
Ac-REYKKIVEKLKRWLRQVLRT-NH2 [Peptide 1302-58, JREYKKIVEKLKRWLRQVLRTB] | 76.8 | 1.6 |  |  | 
Ac-LAREYKKIVEKLKHWLRQVLRTLR-NH2 [Peptide 1302-39, JLAREYKKIVEKLKHWLRQVLRTLRB] | 102.4 | 3.2 |  |  | 
CC[C@H](C)[C@H](NC(=O)[C@H](CCCCN)NC(=O)[C@H](CCCCN)NC(=O)[C@H](Cc1ccc(O)cc1)NC(=O)[C@H](CCC(=O)O)NC(=O)[C@H](CCCNC(=N)N)NC(=O)[C@H](C)NC(=O)[C@H](CC(C)C)NC(C)=O)C(=O)N[C@H](C(=O)N[C@@H](CCC(=O)O)C(=O)N[C@@H](CCCCN)C(=O)N[C@@H](CC(C)C)C(=O)N[C@@H](CCCCN)C(=O)N[C@@H](CCCNC(=N)N)C(=O)N[C@H](Cc1c[nH]c2ccccc12)C(=O)N[C@@H](CC(C)C)C(=O)N[C@@H](CCCNC(=N)N)C(=O)N[C@@H](CCC(N)=O)C(=O)N[C@H](C(=O)N[C@@H](CC(C)C)C(=O)N[C@@H](CCCNC(=N)N)C(=O)N[C@H](C(=O)N[C@@H](CC(C)C)C(=O)N[C@@H](CCCNC(=N)N)C(N)=O)[C@@H](C)O)C(C)C)C(C)C [Peptide 1301-15, JLAREYKKIVEKLKRwLRQVLRTLRB] (Ac-LAREYKKIVEKLKR[dW]LRQVLRTLR-NH2) | 38.4 | 0.4 |  |  | 
Ac-LAREYKKIVEKLKRWLRTVLRTLR-NH2 [Peptide 1302-45, JLAREYKKIVEKLKRWLRTVLRTLRB] | 76.8 | 1.6 |  |  | 
Ac-LAREYKKIVEKLKKWLRQVLRTLR-NH2 [Peptide 1302-38, JLAREYKKIVEKLKKWLRQVLRTLRB] | 102.4 | 2.4 |  |  | 
Ac-LAREYKKIVEKLKRWLRQVLRNLR-NH2 [Peptide 1302-53, JLAREYKKIVEKLKRWLRQVLRNLRB] | 51.2 | 1.6 |  |  | 
Ac-LAREYKKIVEKLHRWLRQVLRTLR-NH2 [Peptide 1302-37, JLAREYKKIVEKLHRWLRQVLRTLRB] | 102.4 | 3.2 |  |  | 
Ac-LAREYKKIVEKLKRWLRQVLRTLH-NH2 [Peptide 1302-55, JLAREYKKIVEKLKRWLRQVLRTLHB] | 102.4 | 1.2 |  |  | 
CC[C@H](C)[C@H](NC(=O)[C@H](CCCCN)NC(=O)[C@H](CCCCN)NC(=O)[C@H](Cc1ccc(O)cc1)NC(=O)[C@H](CCC(=O)O)NC(=O)[C@H](CCCNC(=N)N)NC(=O)[C@H](C)NC(=O)[C@H](CC(C)C)NC(C)=O)C(=O)N[C@@H](C(=O)N[C@@H](CCC(=O)O)C(=O)N[C@@H](CCCCN)C(=O)N[C@@H](CC(C)C)C(=O)N[C@@H](CCCCN)C(=O)N[C@@H](CCCNC(=N)N)C(=O)N[C@@H](Cc1c[nH]c2ccccc12)C(=O)N[C@@H](CC(C)C)C(=O)N[C@@H](CCCNC(=N)N)C(=O)N[C@@H](CCC(N)=O)C(=O)N[C@H](C(=O)N[C@@H](CC(C)C)C(=O)N[C@@H](CCCNC(=N)N)C(=O)N[C@H](C(=O)N[C@@H](CC(C)C)C(=O)N[C@@H](CCCNC(=N)N)C(N)=O)[C@@H](C)O)C(C)C)C(C)C [Peptide 1301-9, JLAREYKKIvEKLKRWLRQVLRTLRB] (Ac-LAREYKKI[dV]EKLKRWLRQVLRTLR-NH2) | 38.4 | 0.6 |  |  | 
CC[C@H](C)[C@H](NC(=O)[C@H](CCCCN)NC(=O)[C@H](CCCCN)NC(=O)[C@H](Cc1ccc(O)cc1)NC(=O)[C@H](CCC(=O)O)NC(=O)[C@H](CCCNC(=N)N)NC(=O)[C@H](C)NC(=O)[C@H](CC(C)C)NC(=O)OCCOCCOCCOCCOCCOCCOCCOCCOCCOCCOCCN)C(=O)N[C@H](C(=O)N[C@@H](CCC(=O)O)C(=O)N[C@@H](CCCCN)C(=O)N[C@@H](CC(C)C)C(=O)N[C@@H](CCCCN)C(=O)N[C@@H](CCCNC(=N)N)C(=O)N[C@@H](Cc1c[nH]c2ccccc12)C(=O)N[C@@H](CC(C)C)C(=O)N[C@@H](CCCNC(=N)N)C(=O)N[C@@H](CCC(N)=O)C(=O)N[C@H](C(=O)N[C@@H](CC(C)C)C(=O)N[C@@H](CCCNC(=N)N)C(=O)N[C@H](C(=O)N[C@@H](CC(C)C)C(=O)N[C@@H](CCCNC(=N)N)C(N)=O)[C@@H](C)O)C(C)C)C(C)C [Peptide 1302-7, oLAREYKKIVEKLKRWLRQVLRTLRB] (X1-LAREYKKIVEKLKRWLRQVLRTLR-NH2; N-terminus assumed) | 102.4 | 1.6 |  |  | 
Ac-LAREYKKIVERLKRWLRQVLRTLR-NH2 [Peptide 1302-31, JLAREYKKIVERLKRWLRQVLRTLRB] | 102.4 | 3.2 |  |  | 
Ac-LAREYKKIVEKLKRWLRQVARTLR-NH2 [Peptide 1302-49, JLAREYKKIVEKLKRWLRQVARTLRB] |  |  | 51.2 | 1.6 | 
Ac-LAREYKKIVEKLKRWLRQVVRTLR-NH2 [Peptide 1302-48, JLAREYKKIVEKLKRWLRQVVRTLRB] | 76.8 | 1.2 |  |  | 
Ac-IAREYKKIVEKLKRWLRQVLRTLR-NH2 [Peptide 1302-17, JIAREYKKIVEKLKRWLRQVLRTLRB] | 102.4 | 1.6 |  |  | 
CCCCCC(=O)N[C@@H](CC(C)C)C(=O)N[C@@H](C)C(=O)N[C@@H](CCCNC(=N)N)C(=O)N[C@@H](CCC(=O)O)C(=O)N[C@@H](Cc1ccc(O)cc1)C(=O)N[C@@H](CCCCN)C(=O)N[C@@H](CCCCN)C(=O)N[C@H](C(=O)N[C@H](C(=O)N[C@@H](CCC(=O)O)C(=O)N[C@@H](CCCCN)C(=O)N[C@@H](CC(C)C)C(=O)N[C@@H](CCCCN)C(=O)N[C@@H](CCCNC(=N)N)C(=O)N[C@@H](Cc1c[nH]c2ccccc12)C(=O)N[C@@H](CC(C)C)C(=O)N[C@@H](CCCNC(=N)N)C(=O)N[C@@H](CCC(N)=O)C(=O)N[C@H](C(=O)N[C@@H](CC(C)C)C(=O)N[C@@H](CCCNC(=N)N)C(=O)N[C@H](C(=O)N[C@@H](CC(C)C)C(=O)N[C@@H](CCCNC(=N)N)C(N)=O)[C@@H](C)O)C(C)C)C(C)C)[C@@H](C)CC [Peptide 1302-8, bLAREYKKIVEKLKRWLRQVLRTLRB] (Hexanoyl-LAREYKKIVEKLKRWLRQVLRTLR-NH2) | 102.4 | 1.2 |  |  | 
Ac-LLREYKKIVEKLKRWLRQVLRTLR-NH2 [Peptide 1302-20, JLLREYKKIVEKLKRWLRQVLRTLRB] | 102.4 | 1.6 |  |  | 
Ac-LAREYKKIVEKLKRWLRQVLRALR-NH2 [Peptide 1302-54, JLAREYKKIVEKLKRWLRQVLRALRB] | 51.2 | 0.8 |  |  | 
Ac-LAHEYKKIVEKLKRWLRQVLRTLR-NH2 [Peptide 1302-24, JLAHEYKKIVEKLKRWLRQVLRTLRB] | 102.4 | 1.6 |  |  | 
Ac-LAREYRKIVEKLKRWLRQVLRTLR-NH2 [Peptide 1302-27, JLAREYRKIVEKLKRWLRQVLRTLRB] | 76.8 | 0.8 |  |  | 
Ac-LAREYKKIVEKVKRWLRQVLRTLR-NH2 [Peptide 1302-34, JLAREYKKIVEKVKRWLRQVLRTLRB] | 102.4 | 3.2 |  |  | 
Ac-LAREYKKIVEKLKRWLRNVLRTLR-NH2 [Peptide 1302-42, JLAREYKKIVEKLKRWLRNVLRTLRB] | 76.8 | 1.6 |  |  | 
Ac-YKKIVEKLKRWLRQVL-NH2 [Peptide 1302-62, JYKKIVEKLKRWLRQVLB] | 76.8 | 1.6 |  |  | 
CC[C@@H](C)[C@@H](NC(=O)[C@H](NC(=O)[C@@H](CCC(=O)O)NC(=O)[C@@H](CCCCN)NC(=O)[C@@H](CC(C)C)NC(=O)[C@@H](CCCCN)NC(=O)[C@@H](CCCNC(=N)N)NC(=O)[C@@H](Cc1c[nH]c2ccccc12)NC(=O)[C@@H](CC(C)C)NC(=O)[C@@H](CCCNC(=N)N)NC(=O)[C@@H](CCC(N)=O)NC(=O)[C@H](NC(=O)[C@@H](CC(C)C)NC(=O)[C@@H](CCCNC(=N)N)NC(=O)[C@H](NC(=O)[C@@H](CC(C)C)NC(=O)[C@H](N)CCCNC(=N)N)[C@H](C)O)C(C)C)C(C)C)C(=O)N[C@H](CCCCN)C(=O)N[C@H](CCCCN)C(=O)N[C@H](Cc1ccc(O)cc1)C(=O)N[C@H](CCC(=O)O)C(=O)N[C@H](CCCNC(=N)N)C(=O)N[C@H](C)C(=O)N[C@H](CC(C)C)C(N)=O [Peptide 1241-03, rltrlvqrlwrklkevikkyeralB] (H-[dR][dL][dT][dR][dL][dV][dQ][dR][dL][dW][dR][dK][dL][dK][dE][dV][dI][dK][dK][dY][dE][dR][dA][dL]-NH2) | >102.4 | 3.2 |  |  | possesses antimicrobial activity
